Here are results for 15 compounds from patent publication US10806785B2, “Immunomodulator compounds and methods of use” (Incyte Corporation, priority 2016, dated 2020).

Molecules are shown by their SMILES. A value given as a limit tells only on which side of the number the result lay.

In this assay the target is PD-1/PD-L1 (Homo sapiens (Human), UniProt Q9NZQ7). Description: PD-1/PD-L1 binding assay (HTRF). The protocol: The assays were conducted in a standard black 384-well polystyrene plate with a final volume of 20 μL. Inhibitors were first serially diluted in DMSO and then added to the plate wells before the addition of other reaction components. The final concentration of DMSO in the assay was 1%. The assays were carried out at 25° C. in the PBS buffer (pH 7.4) with 0.05% Tween-20 and 0.1% BSA. Recombinant human PD-L1 protein (19-238) with a His-tag at the C-terminus was purchased from AcroBiosystems (PD1-H5229). Recombinant human PD-1 protein (25-167) with Fc tag at the C-terminus was also purchased from AcroBiosystems (PD1-H5257). PD-L1 and PD-1 proteins were diluted in the assay buffer and 10 μL was added to the plate well. Plates were centrifuged and proteins were preincubated with inhibitors for 40 minutes. The incubation was followed by the addition of 10 μL of HTRF detection buffer supplemented with Europium cryptate-labeled anti-human IgG (PerkinElmer-AD0212) specific for Fc and anti-His antibody conjugated to SureLight®-Allophycocyanin (APC, PerkinElmer-AD0059H). After centrifugation, the plate was incubated at 25° C. for 60 min. before reading on a PHERAstar FS plate reader (665 nm/620 nm ratio). Final concentrations in the assay were […], 10 nM PD-L1, 1 nM europium anti-human IgG and 20 nM anti-His-Allophycocyanin. IC50 determination was performed by fitting the curve of percent control activity versus the log of the inhibitor concentration using the GraphPad Prism 5.0 software.
PD-1/PD-L1, sequence (Q9NZQ7 19-238): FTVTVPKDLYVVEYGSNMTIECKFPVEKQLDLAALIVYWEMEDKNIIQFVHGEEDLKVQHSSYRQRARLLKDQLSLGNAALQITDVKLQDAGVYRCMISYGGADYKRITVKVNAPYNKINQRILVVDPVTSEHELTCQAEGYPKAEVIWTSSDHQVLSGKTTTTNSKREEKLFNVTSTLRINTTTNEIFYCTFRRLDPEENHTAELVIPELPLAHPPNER
In general terms: TR-FRET usually uses a lanthanide donor and a delayed reading to cut background.
Broadly, the IC50 is the concentration at which inhibition is half-maximal. As to `Cc1c(NC(=O)c2nc3c(n2C)CCN(C[C@@H](C)O)C3)cccc1-c1cccc(NC(=O)c2nc3c(n2C)CCN(C2CCC(C)(C(=O)O)CC2)C3)c1Cl` (mixture of isomers) [Compound 141, (R)-4-(2-((2-chloro-3′-(5-(2-hydroxypropyl)-1-methyl-4,5,6,7-tetrahydro-1H-imidazo[4,5-c]pyridine-2-carboxamido)-2′-methyl-[1,1′-biphenyl]-3-yl)carbamoyl)-1-methyl-1,4,6,7-tetrahydro-5H-imidazo[4,5-c]pyridin-5-yl)-1-methylcyclohcxane-1-carboxylic acid], the IC50 is not above 10 nM.

`Cc1c(NC(=O)c2nc3c(n2C)CCN(C2CCOCC2)C3)cccc1-c1cccc(NC(=O)c2nc3c(n2C)CCN(C2CCC(C)(C(=O)O)CC2)C3)c1Cl` (single isomer, unassigned) [142 (compound 142-1), 4-(2-((2-chloro-2′-methyl-3′-(1-methyl-5-(tetrahydro-2H-pyran-4-yl)-4,5,6,7-tetrahydro-1H-imidazo[4,5-c]pyridine-2-carboxamido)-[1,1′-biphenyl]-3-yl)carbamoyl)-1-methyl-1,4,6,7-tetrahydro-5H-imidazo[4,5-c]pyridin-5-yl)-1-methylcyclohexane-1-carboxylic acid] displayed a 50% inhibitory concentration (IC50) not above 10 nM.

Take `Cc1c(NC(=O)c2nc3c(n2C)CCN(C[C@H](C)O)C3)cccc1-c1cccc(NC(=O)c2nc3c(n2C)CCN(C2CCC(C)(C(=O)O)CC2)C3)c1Cl` (single isomer, unassigned) [143 (compound 143-1)]: the IC50 is not above 10 nM.

For `Cn1c(C(=O)Nc2cccc(-c3cccc(NC(=O)c4nc5c(n4C)CCN(C4CCC(O)CC4)C5)c3Cl)c2Cl)nc2c1CCN(CC13CCC(C(=O)O)(CC1)C3)C2` (single isomer, unassigned) [183 (compound 183-1), 4-((2-(2,2′-dichloro-3′-(5-(4-hydroxycyclohexyl)-1-methyl-4,5,6,7-tetrahydro-1H-imidazo[4,5-c]pyridine-2-carboxamido)biphenyl-3-ylcarbamoyl)-1-methyl-6,7-dihydro-1H-imidazo[4,5-c]pyridin-5(4H)-yl)methyl)bicyclo[2.2.1]heptane-1-carboxylic acid], the IC50 is not above 10 nM.

`CN1CCc2c(nc(C(=O)Nc3cccc(-c4cccc(NC(=O)c5nc6c(n5C)CCN(CC5CCC(C)(C(=O)O)CC5)C6)c4Cl)c3Cl)n2C)C1` (single isomer, unassigned) [Compound 82-1, 4-((2-((2,2′-dichloro-3′-(1,5-dimethyl-4,5,6,7-tetrahydro-1H-imidazo[4,5-c]pyridine-2-carboxamido)-[1,1′-biphenyl]-3-yl)carbamoyl)-1-methyl-1,4,6,7-tetrahydro-5H-imidazo[4,5-c]pyridin-5-yl)methyl)-1-methylcyclohexane-1-carboxylic acid] gave an IC50 not above 10 nM.

`Cc1c(NC(=O)c2nc3c(n2C)CCN(C)C3)cccc1-c1cccc(NC(=O)c2nc3c(n2C)CCN(CC2CCC(C)(C(=O)O)CC2)C3)c1Cl` (single isomer, unassigned) [Compound 120-1, 4-((2-((2-chloro-3′-(1,5-dimethyl-4,5,6,7-tetrahydro-1H-imidazo[4,5-c]pyridine-2-carboxamido)-2′-methyl-[1,1′-biphenyl]-3-yl)carbamoyl)-1-methyl-1,4,6,7-tetrahydro-5H-imidazo[4,5-c]pyridin-5-yl)methyl)-1-methylcyclohexane-1-carboxylic acid] showed an IC50 not above 10 nM.

`Cc1c(NC(=O)c2nc3c(n2C)CCN(C2CCC(O)CC2)C3)cccc1-c1cccc(NC(=O)c2nc3c(n2C)CCN(CC[C@H]2CC[C@H](C(=O)O)CC2)C3)c1Cl` (single isomer, unassigned) [Compound 134-1, Trans-4-(2-(2-(2-chloro-3′-(5-(4-hydroxycyclohexyl)-1-methyl-4,5,6,7-tetrahydro-1H-imidazo[4,5-c]pyridine-2-carboxamido)-2′-methylbiphenyl-3-ylcarbamoyl)-1-methyl-6,7-dihydro-1H-imidazo[4,5-c]pyridin-5(4H)-yl)ethyl)cyclohexane-1-carboxylic Acid] yielded a half-inhibitory concentration (IC50) not above 10 nM.

Take `Cc1c(NC(=O)c2nc3c(n2C)CCN(C2CCC(O)CC2)C3)cccc1-c1cccc(NC(=O)c2nc3c(n2C)CCN(C[C@H]2CC[C@@H](C(=O)O)CC2)C3)c1Cl` (single isomer, unassigned) [Compound 138-1, cis-4-((2-((2-chloro-3′-(5-(4-hydroxycyclohexyl)-1-methyl-4,5,6,7-tetrahydro-1H-imidazo[4,5-c]pyridine-2-carboxamido)-2′-methyl-[1,1′-biphenyl]-3-yl)carbamoyl)-1-methyl-1,4,6,7-tetrahydro-5H-imidazo[4,5-c]pyridin-5-yl)methyl)cyclohexane-1-carboxylic acid]: the IC50 was not above 10 nM.

Compound `Cn1c(C(=O)Nc2cccc(-c3cccc(NC(=O)c4nc5c(n4C)CCN(C4CCC(O)CC4)C5)c3Cl)c2Cl)nc2c1CCN(C[C@H]1CC[C@H](C(=O)O)CC1)C2` (stereo partly drawn) [144 (compound 144-1), trans-4-((2-((2,2′-dichloro-3′-(5-(4-hydroxycyclohexyl)-1-methyl-4,5,6,7-tetrahydro-1H-imidazo[4,5-c]pyridine-2-carboxamido)-[1,1′-biphenyl]-3-yl)carbamoyl)-1-methyl-1,4,6,7-tetrahydro-5H-imidazo[4,5-c]pyridin-5-yl)methyl)cyclohexane-1-carboxylic acid] displayed an IC50 not above 10 nM.

Turning to `Cn1c(C(=O)Nc2cccc(-c3cccc(NC(=O)c4nc5c(n4C)CCN(C4CCC(O)CC4)C5)c3Cl)c2Cl)nc2c1CCN(C[C@H]1CC[C@@H](C(=O)O)CC1)C2` (stereo partly drawn) [145 (compound 145-1), cis-4-((2-((2,2′-dichloro-3′-(5-(4-hydroxycyclohexyl)-1-methyl-4,5,6,7-tetrahydro-1H-imidazo[4,5-c]pyridine-2-carboxamido)-[1,1′-biphenyl]-3-yl)carbamoyl)-1-methyl-1,4,6,7-tetrahydro-5H-imidazo[4,5-c]pyridin-5-yl)methyl)cyclohexane-1-carboxylic acid], the IC50 is not above 10 nM.

In the case of `Cn1c(C(=O)Nc2cccc(-c3cccc(NC(=O)c4nc5c(n4C)CCN(C4CCC(O)CC4)C5)c3Cl)c2Cl)nc2c1CCN(CC[C@H]1CC[C@H](C(=O)O)CC1)C2` (stereo partly drawn) [146 (compound 146-1), trans-4-(2-(2-((2,2′-dichloro-3′-(5-(4-hydroxycyclohexyl)-1-methyl-4,5,6,7-tetrahydro-1H-imidazo[4,5-c]pyridine-2-carboxamido)-[1,1′-biphenyl]-3-yl)carbamoyl)-1-methyl-1,4,6,7-tetrahydro-5H-imidazo[4,5-c]pyridin-5-yl)ethyl)cyclohexane-1-carboxylic acid], the IC50 is not above 10 nM.

As to `Cc1c(NC(=O)c2nc3c(n2C)CCN(C2C4CC5CC2CC(C(=O)O)(C5)C4)C3)cccc1-c1cccc(NC(=O)c2nc3c(n2C)CCN(C)C3)c1Cl` (stereo not drawn) [175 (compound 175-1), 4-(2-((2′-chloro-3′-(1,5-dimethyl-4,5,6,7-tetrahydro-1H-imidazo[4,5-c]pyridine-2-carboxamido)-2-methyl-[1,1′-biphenyl]-3-yl)carbamoyl)-1-methyl-1,4,6,7-tetrahydro-5H-imidazo[4,5-c]pyridin-5-yl)adamantane-1-carboxylic acid], the IC50 is not above 10 nM.

In the case of `CN1CCc2c(nc(C(=O)Nc3cccc(-c4cccc(NC(=O)c5nc6c(n5C)CCN(CCC5CCC(C(=O)O)CC5)C6)c4Cl)c3Cl)n2C)C1` (stereo not drawn) [Compound 77-1, 4-(2-(2-((2,2′-dichloro-3′-(1,5-dimethyl-4,5,6,7-tetrahydro-1H-imidazo[4,5-c]pyridine-2-carboxamido)-[1,1′-biphenyl]-3-yl)carbamoyl)-1-methyl-1,4,6,7-tetrahydro-5H-imidazo[4,5-c]pyridin-5-yl)ethyl)cyclohexane-1-carboxylic acid], the IC50 is not above 10 nM.

Take `Cc1c(NC(=O)c2nc3c(n2C)CCN(C2CCCCC2)C3)cccc1-c1cccc(NC(=O)c2nc3c(n2C)CCN(C2CCC(C)(C(=O)O)CC2)C3)c1Cl` (stereo not drawn) [Compound 139, 4-(2-((2-chloro-3-(5-cyclohexyl-1-methyl-4,5,6,7-tetrahydro-1H-imidazo[4,5-c]pyridine-2-carboxamido)-2′-methyl-[1,1′-biphenyl]-3-yl)carbamoyl)-1-methyl-1,4,6,7-tetrahydro-5H-imidazo[4,5-c]pyridin-5-yl)-1-methylcyclohexane-1-carboxylic acid]: the IC50 was not above 10 nM.

In turn, `Cc1c(NC(=O)c2nc3c(n2C)CCN(C2CCC(O)CC2)C3)cccc1-c1cccc(NC(=O)c2nc3c(n2C)CCN(C2CCC(C)(C(=O)O)CC2)C3)c1Cl` (stereo not drawn) [Compound 140, 4-(2-((2-chloro-3′-(5-(4-hydroxycyclohexyl)-1-methyl-4,5,6,7-tetrahydro-1H-imidazo[4,5-c]pyridine-2-carboxamido)-2′-methyl-[1,1′-biphenyl]-3-yl)carbamoyl)-1-methyl-1,4,6,7-tetrahydro-5H-imidazo[4,5-c]pyridin-5-yl)-1-methylcyclohexane-1-carboxylic acid] yielded an IC50 not above 10 nM.
